# Reference: patent US6867207B2, “IL-5 inhibiting 6-azauracil derivatives” (Janssen Pharmaceutica N.V., priority 1997, dated 2005)
# Test system: IL-5 production
# Experiment: In vitro inhibition of IL-5 production in human blood (phytohemagglutinin-stimulated whole blood, ELISA);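 further: values marked with an asterisk were tested at 10 µM and unmarked values at 1 µM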
# Format: cell-based
# Conditions: test dose 1×10^−6 M, 48 hours
# Method in brief: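 Percent inhibition of IL-5, quantified by ELISA in cell-free supernatants, is given at a single dose of 1×10^−6 M (or 1×10^−5 M). Threefold-diluted human whole blood from healthy men received compound for 60 min at 37° C before 48 h PHA stimulation at 2 μg/mL.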
row,SMILES,% inh. (percentage inhibition of IL-5 production) [%]
1,O=c1cnn(-c2ccc(C(c3ccc(Cl)cc3)c3sc(-c4ccccc4Cl)nc3-c3ccccc3Cl)c(Cl)c2)c(=O)[nH]1 (racemic) [Compound 151],17
2,Cc1nc(-c2ccccc2F)c(C(c2ccc(Cl)cc2)c2c(Cl)cc(-n3ncc(=O)[nH]c3=O)cc2Cl)s1 (racemic) [Compound 152],87
3,COc1cc(-n2ncc(=O)[nH]c2=O)ccc1C(c1ccc(Cl)cc1)c1sc(C)nc1-c1ccccc1 (racemic) [Compound 153],72
4,Cc1nc(-c2ccccc2Cl)sc1C(c1ccc(Cl)cc1)c1ccc(-n2ncc(=O)[nH]c2=O)cc1Cl (racemic) [Compound 154],42
5,CC(c1ccc(Cl)c(C(F)(F)F)c1)(c1nnc(-c2ccccc2)o1)c1ccc(-n2ncc(=O)[nH]c2=O)cc1Cl (racemic) [Compound 155],80
6,O=c1cnn(-c2cc(Cl)c(C(c3ccc(Cl)cc3)c3nnc(-c4ccccc4F)o3)c(Cl)c2)c(=O)[nH]1 (racemic) [Compound 156],91
7,O=c1cnn(-c2cc(Cl)c(C(c3ccc(Cl)cc3)c3nnc(-c4cccc(Cl)c4)o3)c(Cl)c2)c(=O)[nH]1 (racemic) [Compound 157],85
8,O.O=c1cnn(-c2cc(Cl)c(C(c3ccc(Cl)cc3)c3nnc(-c4ccncc4)o3)c(Cl)c2)c(=O)[nH]1 (racemic) [Compound 158],92
9,O=c1cnn(-c2cc(Cl)c(C(c3ccc(Cl)cc3)c3nnc(C4CCCCC4)o3)c(Cl)c2)c(=O)[nH]1 (racemic) [Compound 159],87
10,O=c1cnn(-c2cc(Cl)c(C(c3ccc(Cl)cc3)c3nnc(-c4cccc(F)c4)o3)c(Cl)c2)c(=O)[nH]1 (racemic) [Compound 160],91
11,O=c1cnn(-c2cc(Cl)c(C(c3ccc(Cl)cc3)c3nnc(-c4ccco4)o3)c(Cl)c2)c(=O)[nH]1 (racemic) [Compound 161],91
12,Cc1nnc(C(c2ccc(Cl)cc2)c2c(Cl)cc(-n3ncc(=O)[nH]c3=O)cc2Cl)o1 (racemic) [Compound 162],63
13,O.O=c1cnn(-c2cc(Cl)c(C(c3ccc(Cl)cc3)c3nnc(-c4ccccc4Cl)o3)c(Cl)c2)c(=O)[nH]1 (racemic) [Compound 163],90
14,CCCc1nnc(C(c2ccc(Cl)cc2)c2c(Cl)cc(-n3ncc(=O)[nH]c3=O)cc2Cl)o1 (racemic) [Compound 164],84
15,O=c1cnn(-c2cc(Cl)c(C(c3ccc(Cl)c(C(F)(F)F)c3)c3nnc(-c4ccccc4)o3)c(Cl)c2)c(=O)[nH]1 (racemic) [Compound 165],80
16,O=c1cnn(-c2cc(Cl)c(C(c3ccc(Cl)cc3)c3nnc(-c4cccs4)o3)c(Cl)c2)c(=O)[nH]1 (racemic) [Compound 166],87
17,O=c1cnn(-c2cc(Cl)c(C(c3ccc(Cl)cc3)c3nnc(-c4ccc(Cl)cc4)o3)c(Cl)c2)c(=O)[nH]1 (racemic) [Compound 167],82
18,O=c1cnn(-c2cc(Cl)c(C(c3ccc(Cl)cc3)c3nnc(-c4ccc(Br)cc4)o3)c(Cl)c2)c(=O)[nH]1 (racemic) [Compound 168],80
19,O=c1cnn(-c2cc(Cl)c(C(c3ccc(Cl)cc3)c3nnc(-c4ccccn4)o3)c(Cl)c2)c(=O)[nH]1 (racemic) [Compound 169],81
20,COc1cccc(-c2nnc(C(c3ccc(Cl)cc3)c3c(Cl)cc(-n4ncc(=O)[nH]c4=O)cc3Cl)o2)c1 (racemic) [Compound 170],62
21,COc1ccccc1-c1nnc(C(c2ccc(Cl)cc2)c2c(Cl)cc(-n3ncc(=O)[nH]c3=O)cc2Cl)o1 (racemic) [Compound 171],59
22,O=c1cnn(-c2cc(Cl)c(C(c3ccc(Cl)cc3)c3nnc(CCc4ccccc4)o3)c(Cl)c2)c(=O)[nH]1 (racemic) [Compound 172],17
23,O=c1cnn(-c2cc(Cl)c(C(c3ccc(Cl)cc3)c3nnc(Cc4ccccc4)o3)c(Cl)c2)c(=O)[nH]1 (racemic) [Compound 173],44
24,COc1ccccc1-c1nnc(C(c2ccc(Cl)cc2)c2c(Cl)cc(-n3ncc(=O)[nH]c3=O)cc2Cl)o1 (racemic) [Compound 174],83

row,SMILES,% inh. (percentage inhibition of IL-5 production) [%]
1,O=c1cnn(-c2cc(Cl)c(C(c3ccc(Cl)cc3)c3nnc(COc4ccccc4Cl)o3)c(Cl)c2)c(=O)[nH]1 (racemic) [Compound 175],58
2,CCOC(=O)Cc1nnc(C(c2ccc(Cl)cc2)c2c(Cl)cc(-n3ncc(=O)[nH]c3=O)cc2Cl)o1 (racemic) [Compound 176],3
3,Cc1ccc(-c2nnc(C(c3ccc(Cl)cc3)c3c(Cl)cc(-n4ncc(=O)[nH]c4=O)cc3Cl)o2)cc1 (racemic) [Compound 177],69
4,Cc1cccc(-c2nnc(C(c3ccc(Cl)cc3)c3c(Cl)cc(-n4ncc(=O)[nH]c4=O)cc3Cl)o2)c1 (racemic) [Compound 178],78
5,N#CCc1nnc(C(c2ccc(Cl)cc2)c2c(Cl)cc(-n3ncc(=O)[nH]c3=O)cc2Cl)o1 (racemic) [Compound 179],21
6,CN(C)c1ccc(-c2nnc(C(c3ccc(Cl)cc3)c3c(Cl)cc(-n4ncc(=O)[nH]c4=O)cc3Cl)o2)cc1 (racemic) [Compound 180],54
7,CCOCCc1nnc(C(c2ccc(Cl)cc2)c2c(Cl)cc(-n3ncc(=O)[nH]c3=O)cc2Cl)o1 (racemic) [Compound 181],55
8,CN(C)c1cccc(-c2nnc(C(c3ccc(Cl)cc3)c3c(Cl)cc(-n4ncc(=O)[nH]c4=O)cc3Cl)o2)c1 (racemic) [Compound 182],75
9,Nc1ccc(-c2nnc(C(c3ccc(Cl)cc3)c3c(Cl)cc(-n4ncc(=O)[nH]c4=O)cc3Cl)o2)cc1 (racemic) [Compound 184],83
10,[N-]=[N+]=Nc1ccc(-c2nnc(C(c3ccc(Cl)cc3)c3c(Cl)cc(-n4ncc(=O)[nH]c4=O)cc3Cl)o2)cc1 (racemic) [Compound 185],81
11,CCOC(=O)c1nnc(C(c2ccc(Cl)cc2)c2c(Cl)cc(-n3ncc(=O)[nH]c3=O)cc2Cl)o1 (racemic) [Compound 186],8
12,O=c1cnn(-c2cc(Cl)c(C(c3ccc(Cl)cc3)c3nnc(CCOc4ccccc4)o3)c(Cl)c2)c(=O)[nH]1 (racemic) [Compound 187],25
13,Cc1ccccc1-c1nnc(C(c2ccc(Cl)cc2)c2c(Cl)cc(-n3ncc(=O)[nH]c3=O)cc2Cl)o1 (racemic) [Compound 188],95
14,CCOC(=O)N1CCC(c2nnc(C(c3ccc(Cl)cc3)c3c(Cl)cc(-n4ncc(=O)[nH]c4=O)cc3Cl)o2)CC1 (racemic) [Compound 191],19
15,CN1CCC(c2nnc(C(c3ccc(Cl)cc3)c3c(Cl)cc(-n4ncc(=O)[nH]c4=O)cc3Cl)o2)CC1 (racemic) [Compound 195],7
16,CN(C)Cc1nnc(C(c2ccc(Cl)cc2)c2c(Cl)cc(-n3ncc(=O)[nH]c3=O)cc2Cl)o1 (racemic) [Compound 198],46
17,CN1CCN(c2ccc(-c3nnc(C(c4ccc(Cl)cc4)c4c(Cl)cc(-n5ncc(=O)[nH]c5=O)cc4Cl)o3)cc2)CC1 (racemic) [Compound 199],43
18,O=c1cnn(-c2cc(Cl)c(C(c3ccc(Cl)cc3)c3nnc(-c4cccc(O)c4)o3)c(Cl)c2)c(=O)[nH]1 (racemic) [Compound 200],43
19,O=c1cnn(-c2cc(Cl)c(C(c3ccc(Cl)cc3)c3nnc(-c4cccnc4)o3)c(Cl)c2)c(=O)[nH]1 (racemic) [Compound 201],87
20,Cc1ccsc1-c1nnc(C(c2ccc(Cl)cc2)c2c(Cl)cc(-n3ncc(=O)[nH]c3=O)cc2Cl)o1 (racemic) [Compound 203],82
21,CS(=O)(=O)c1cccc(-c2nnc(C(c3ccc(Cl)cc3)c3c(Cl)cc(-n4ncc(=O)[nH]c4=O)cc3Cl)o2)c1 (racemic) [Compound 205],80
22,CC(c1ccc(Cl)cc1)(c1nnc(-c2ccccc2)o1)c1c(Cl)cc(-n2ncc(=O)[nH]c2=O)cc1Cl (racemic) [Compound 206],82
23,Cc1ccoc1-c1nnc(C(c2ccc(Cl)cc2)c2c(Cl)cc(-n3ncc(=O)[nH]c3=O)cc2Cl)o1 (racemic) [Compound 207],94

# Same assay, conditions: test dose 1×10^−6 M, 48 hours, read-out: % inh. (percentage inhibition of IL-5 production)
row,SMILES,inhibition at 1 µM [%]
1,"[N-]=[N+]=Nc1cccc(-c2nnc(C(c3ccc(Cl)cc3)c3c(Cl)cc(-n4ncc(=O)[nH]c4=O)cc3Cl)o2)c1 (racemic) [Compound 194, (±)-2-[4-[[5-(3-azidophenyl)-1,3,4-oxadiazol-2-yl](4-chlorophenyl)methyl]-3,5-dichlorophenyl]-1,2,4-triazine-3,5(2H,4H)-dione]",83
